Assay results published in patent publication US20240024273A1, “TOPICAL ADMINISTRATION OF 2-(DIETHYLAMINO)ETHYL 2-(4-ISOBUTYLPHENYL)PROPRIONATE FOR TREATMENT OF DISEASES” (TECHFIELDS PHARMA CO., LTD., priority 2020, published 2024).
Like-named read-outs stand apart in the source and are kept apart here.

Columns and labels:
[1] = Phase 1 clinical study: plasma pharmacokinetics of prodrug and ibuprofen; format: in vivo, human; settings: for AUC0-12: read-out: prodrug AUC0-12; for AUC(0-t): read-out: prodrug AUClast; for Cmax: read-out: prodrug Cmax; for Tmax: read-out: prodrug Tmax, median (range); for half-life: read-out: prodrug t1/2 (converted)
Description: Following a 5-day washout period, 2-(diethylamino)ethyl 2-(4-isobutylphenyl)propionate was administered b.i.d. during Days 6-11, and a morning dose only was administered to Day 12. Blood samples were collected for PK analysis over the 120-hour post-dose period following the Day 12 dose. Additionally, pre-dose blood samples were collected on Day 7 through Day 11 to evaluate steady-state status.
The same study procedures were followed as described in Part 1.
For single dose PK, serial blood samples were collected on Day 1 dose at the following time points: 0 (pre-dose), 0.25, 0.5, 0.75, 1, 1.5, 2, 2.5, 3, 4, 5, 6, 8, 10, 12, 18, 24, 48, 72, 96 and 120 hours post-dose.
For multiple-dose PK, serial blood samples were collected on Day 12 at the following time points: 0 (pre-dose), 0.25, 0.5, 0.75, 1, 1.5, 2, 2.5, 3, 4, 5, 6, 8, 10, 12, 18, 24, 48, 72, 96 and 120 hours post-dose.
The relative bioavailability of the single dose 70 mg topical application vs. 70 mg spray application was determined based on AUCtau, AUCinf and Cmax. The 90% confidence intervals (CIs) on the ratio of topical application vs. spray application were calculated.

[2] = Acute maximum tolerated dose study, subcutaneous injection; design: species or system Beagle dogs; settings: beagle, dog, in vivo, sc
[3] = human, plasma, topical or ocular, 17.5 mg, Day 1, 17.5 mg topical
[4] = human, plasma, topical or ocular, 17.5 mg, Day 12, 17.5 mg b.i.d. topical
[5] = human, plasma, topical or ocular, 35 mg, Day 1, 35 mg topical
[6] = human, plasma, topical or ocular, 35 mg, Day 12, 35 mg b.i.d. topical
[7] = human, plasma, topical or ocular, 70 mg, Day 1, 70 mg topical
[8] = human, plasma, topical or ocular, 70 mg, Day 12, 70 mg b.i.d. topical
[9] = human, plasma, topical or ocular, 140 mg, Day 1, 140 mg topical
[10] = human, plasma, topical or ocular, 140 mg, Day 12, 140 mg b.i.d. topical
[11] = human, plasma, topical or ocular, 280 mg, Day 1, 280 mg topical
[12] = human, plasma, topical or ocular, 280 mg, Day 12, 280 mg b.i.d. topical
[13] = human, plasma, topical, 70 mg, Day 1, 70 mg spray
[14] = human, plasma, topical, 70 mg, Day 12, 70 mg b.i.d. spray

## CCN(CC)CCOC(=O)C(C)c1ccc(CC(C)C)cc1 (stereo not drawn) [2-(diethylamino)ethyl 2-(4-isobutylphenyl)propionate]
[1]; 17.5 mg to 280 mg, single and multiple
  dose proportionality of prodrug and ibuprofen Cmax and AUC0-last: did not increase in a dose-proportional manner
[1]; 140 mg and 280 mg doses
  prodrug mean Cmax after 7 days b.i.d., increase: about 2 fold
[1]; Day 12, 17.5 mg b.i.d. topical
  prodrug Kel: 0.0241 (N/A) 1/h
[1]; Day 12, 70 mg b.i.d. topical
  prodrug Kel: 0.0656 (N/A) 1/h
[1]; Day 12, 140 mg b.i.d. topical
  prodrug Kel: 0.0398 (N/A) 1/h
[1]; Day 12, 280 mg b.i.d. topical
  prodrug Kel: 0.0374 (0.0310) 1/h
[1]; human, in vivo
  conversion of absorbed prodrug to ibuprofen: > 99%
[1]; [3]
  AUC0-12: 0.837 ng·h/mL
  AUC(0-t): 1.45 ng·h/mL
  Cmax: 0.158 ng/mL
  Tmax: 8 h
[1]; [4]
  AUC0-12: 0.809 ng·h/mL
  AUC(0-t): 1.31 ng·h/mL
  Cmax: 0.092 ng/mL
  Tmax: 8 h
[1]; [5]
  AUC0-12: 0.34 ng·h/mL
  AUC(0-t): 0.864 ng·h/mL
  Cmax: 0.0862 ng/mL
  Tmax: 11 h
[1]; [6]
  AUC0-12: 1.21 ng·h/mL
  AUC(0-t): 2.29 ng·h/mL
  Cmax: 0.153 ng/mL
  Tmax: 5.12 h
[1]; [7]
  AUC0-12: 0.836 ng·h/mL
  AUC(0-t): 1.99 ng·h/mL
  Cmax: 0.16 ng/mL
  Tmax: 10 h
[1]; [8]
  AUC0-12: 1.1 ng·h/mL
  AUC(0-t): 1.49 ng·h/mL
  Cmax: 0.162 ng/mL
  Tmax: 3.5 h
[1]; [9]
  AUC0-12: 0.478 ng·h/mL
  AUC(0-t): 1.45 ng·h/mL
  Cmax: 0.116 ng/mL
  Tmax: 18 h
[1]; [10]
  AUC0-12: 1.82 ng·h/mL
  AUC(0-t): 3.6 ng·h/mL
  Cmax: 0.305 ng/mL
  Tmax: 2.5 h
[1]; [11]
  AUC0-12: 0.675 ng·h/mL
  AUC(0-t): 4.48 ng·h/mL
  Cmax: 0.233 ng/mL
  Tmax: 18 h
[1]; [12]
  AUC0-12: 3.71 ng·h/mL
  AUC(0-t): 11.6 ng·h/mL
  Cmax: 0.505 ng/mL
  Tmax: 0.25 h
[1]; human, plasma, topical or ocular, Day 12, 17.5 mg b.i.d. topical
  half-life: 28.8 h
[1]; human, plasma, topical or ocular, Day 12, 70 mg b.i.d. topical
  half-life: 10.6 h
[1]; human, plasma, topical or ocular, Day 12, 140 mg b.i.d. topical
  half-life: 17.4 h
[1]; human, plasma, topical or ocular, Day 12, 280 mg b.i.d. topical, read-out: prodrug AUCinf
  AUC(0-inf): 18.1 ng·h/mL
[1]; human, plasma, topical or ocular, Day 12, 280 mg b.i.d. topical
  half-life: 37.8 h
[1]; [13]
  AUC0-12: 0.514 ng·h/mL
  AUC(0-t): 0.947 ng·h/mL
  Cmax: 0.119 ng/mL
  Tmax: 10 h
[1]; [14]
  AUC0-12: 1.06 ng·h/mL
  AUC(0-t): 2.62 ng·h/mL
  Cmax: 0.185 ng/mL
  Tmax: 3 h
[1]; single application, 70 mg
  relative bioavailability of spray vs topical application (plasma ibuprofen): lower
[1]; topical application
  time by which all subjects had measurable plasma prodrug levels: ≤ 3 hours post-dose
[2]
  MTD: 500 mg/kg
